# Data reported in ChEMBL document CHEMBL3885861, “Open TG-GATES”.
# Organism: Rattus norvegicus
# Experiment: Open TG-GATES - Regimen: Daily Repeat
# Format: toxicity, organism-based, Sprague-Dawley
# Parameters: regimen Daily Repeat, gender Male, age 6 weeks
# Settings: in vivo, po, route gavage; for Eos / Fbg / Ht / Lym / MCHC / MCV / Mono / Neu / RBC / Ret / WBC / APTT / Bas / PT / Hb: tissue Blood; for KIDNEY_L / KIDNEY_R / KIDNEY_TOTAL: tissue Kidney; for ALP / ALT / AST / BUN / CRE / Ca / Cl / DBIL / GLC / IP / K / PL / RALB / TBIL / TC / TG / TP / gamma-GTP: tissue Plasma
# [1] = 60 mg/kg, 72 h, dose level Middle, time 3 day
# [2] = 60 mg/kg, […], dose level Middle, time 7 day
# [3] = 60 mg/kg, […], dose level Middle, time 14 day
# [4] = 60 mg/kg, […], dose level Middle, time 28 day
# [5] = 200 mg/kg, 72 h, dose level High, time 3 day
# [6] = 200 mg/kg, […], dose level High, time 7 day
# [7] = 200 mg/kg, […], dose level High, time 14 day
# [8] = 200 mg/kg, […], dose level High, time 28 day
compound,measurement,setting,value
CCCCC1C(=O)N(c2ccccc2)N(c2ccccc2)C1=O [PHENYLBUTAZONE],Eos,[1],1.2%
same,Fbg,[1],234.2 mg/dL
same,Ht,[1],42.3%
same,Lym,[1],76.2%
same,MCHC,[1],33.5%
same,MCV,[1],63.4 fL
same,Mono,[1],6.4%
same,Neu,[1],16.4%
same,RBC,[1],667.4 x10_4/ul
same,Ret,[1],6.7%
same,WBC,[1],119.1 x10_2/uL
same,KIDNEY_L,[1],1 g
same,KIDNEY_R,[1],1 g
same,KIDNEY_TOTAL,[1],2 g
same,ALP,[1],957.4 IU/L
same,ALT,[1],35.6 IU/L
same,AST,[1],57.6 IU/L
same,BUN,[1],18.4 mg/dL
same,CRE,[1],0.6 mg/dL
same,Ca,[1],10.5 mg/dL
same,Cl,[1],105.6 meq/L
same,DBIL,[1],0.006 mg/dL
same,GLC,[1],199.4 mg/dL
same,IP,[1],7.9 mg/dL
same,K,[1],4.7 meq/L
same,PL,[1],167.6 mg/dL
same,RALB,[1],4 g/dL
same,TBIL,[1],0.3 mg/dL
same,TC,[1],92 mg/dL
same,TG,[1],136.8 mg/dL
same,TP,[1],6.1 g/dL
same,gamma-GTP,[1],1 IU/L
same,TERMINAL_BW,[2],272.5 g
same,TERMINAL_BW,[3],313.9 g
same,TERMINAL_BW,[4],407.1 g
same,APTT,[2],16.2 s
same,Bas,[2],0%
same,Eos,[2],0.4%
same,Fbg,[2],231 mg/dL
same,Ht,[2],42.2%
same,Lym,[2],86.2%
same,MCHC,[2],33.6%
same,MCV,[2],64.2 fL
same,Mono,[2],4.2%
same,Neu,[2],9%
same,PT,[2],11.7 s
same,RBC,[2],657.4 x10_4/ul
same,Ret,[2],5.4%
same,WBC,[2],186.6 x10_2/uL
same,APTT,[3],16.5 s
same,Bas,[3],0%
same,Eos,[3],0.6%
same,Fbg,[3],227.6 mg/dL
same,Hb,[3],14.9 g/dL
same,Ht,[3],44.5%
same,Lym,[3],86%
same,MCHC,[3],33.5%
same,MCV,[3],60.4 fL
same,Mono,[3],4%
same,Neu,[3],9.4%
same,RBC,[3],736.4 x10_4/ul
same,Ret,[3],4.4%
same,WBC,[3],167.1 x10_2/uL
same,APTT,[4],15.9 s
same,Bas,[4],0%
same,Eos,[4],0.6%
same,Fbg,[4],246.5 mg/dL
same,Hb,[4],15.3 g/dL
same,Ht,[4],45.9%
same,Lym,[4],86%
same,MCHC,[4],33.4%
same,MCV,[4],58.4 fL
same,Mono,[4],3%
same,RBC,[4],786.6 x10_4/ul
same,Ret,[4],2.6%
same,WBC,[4],129.4 x10_2/uL
same,KIDNEY_L,[2],1.1 g
same,KIDNEY_R,[2],1.1 g
same,KIDNEY_TOTAL,[2],2.2 g
same,KIDNEY_L,[3],1.3 g
same,KIDNEY_R,[3],1.3 g
same,KIDNEY_TOTAL,[3],2.6 g
same,KIDNEY_L,[4],1.4 g
same,KIDNEY_R,[4],1.4 g
same,KIDNEY_TOTAL,[4],2.9 g
same,ALP,[2],845.8 IU/L
same,ALT,[2],37.4 IU/L
same,AST,[2],65 IU/L
same,BUN,[2],20.8 mg/dL
same,CRE,[2],0.5 mg/dL
same,Ca,[2],10.7 mg/dL
same,Cl,[2],106.6 meq/L
same,DBIL,[2],0 mg/dL
same,GLC,[2],195.8 mg/dL
same,IP,[2],8.5 mg/dL
same,K,[2],5 meq/L
same,PL,[2],161 mg/dL
same,RALB,[2],4 g/dL
same,TBIL,[2],0.3 mg/dL
same,TC,[2],79 mg/dL
same,TG,[2],166.8 mg/dL
same,TP,[2],6.7 g/dL
same,gamma-GTP,[2],1.4 IU/L
same,ALP,[3],877.8 IU/L
same,ALT,[3],36.4 IU/L
same,AST,[3],65 IU/L
same,BUN,[3],20.8 mg/dL
same,CRE,[3],0.6 mg/dL
same,Ca,[3],10.6 mg/dL
same,Cl,[3],107 meq/L
same,DBIL,[3],0.002 mg/dL
same,GLC,[3],189.4 mg/dL
same,IP,[3],8.3 mg/dL
same,K,[3],4.5 meq/L
same,RALB,[3],4 g/dL
same,TBIL,[3],0.3 mg/dL
same,TC,[3],64 mg/dL
same,TG,[3],138 mg/dL
same,TP,[3],6.3 g/dL
same,gamma-GTP,[3],1.8 IU/L
same,ALP,[4],605.8 IU/L
same,ALT,[4],44.2 IU/L
same,AST,[4],70.8 IU/L
same,BUN,[4],22.2 mg/dL
same,CRE,[4],0.6 mg/dL
same,Ca,[4],10.7 mg/dL
same,Cl,[4],105.2 meq/L
same,DBIL,[4],0.006 mg/dL
same,GLC,[4],189.8 mg/dL
same,IP,[4],7.7 mg/dL
same,K,[4],4.6 meq/L
same,PL,[4],161.8 mg/dL
same,RALB,[4],4.3 g/dL
same,TBIL,[4],0.4 mg/dL
same,TC,[4],76.4 mg/dL
same,TG,[4],280.8 mg/dL
same,TP,[4],6.8 g/dL
same,gamma-GTP,[4],1.2 IU/L
same,TERMINAL_BW,[5],224.8 g
same,APTT,[5],17.7 s
same,Bas,[5],0%
same,Eos,[5],1%
same,Fbg,[5],309.8 mg/dL
same,Hb,[5],12.5 g/dL
same,Ht,[5],37.3%
same,Lym,[5],74.4%
same,MCHC,[5],33.5%
same,MCV,[5],63.9 fL
same,Mono,[5],9.4%
same,Neu,[5],15.8%
same,PT,[5],11.7 s
same,RBC,[5],586.8 x10_4/ul
same,Ret,[5],8.1%
same,WBC,[5],200.4 x10_2/uL
same,KIDNEY_L,[5],1.1 g
same,KIDNEY_R,[5],1.1 g
same,KIDNEY_TOTAL,[5],2.2 g
same,ALP,[5],627.8 IU/L
same,ALT,[5],27 IU/L
same,AST,[5],55.2 IU/L
same,BUN,[5],20.4 mg/dL
same,CRE,[5],0.6 mg/dL
same,Ca,[5],10.2 mg/dL
same,Cl,[5],106 meq/L
same,DBIL,[5],0 mg/dL
same,GLC,[5],189.2 mg/dL
same,IP,[5],7 mg/dL
same,K,[5],5.1 meq/L
same,RALB,[5],3.3 g/dL
same,TBIL,[5],0.2 mg/dL
same,TC,[5],81.8 mg/dL
same,TG,[5],168.6 mg/dL
same,TP,[5],5.8 g/dL
same,gamma-GTP,[5],2.2 IU/L
same,TERMINAL_BW,[6],254.1 g
same,TERMINAL_BW,[7],296 g
same,TERMINAL_BW,[8],348.8 g
same,APTT,[6],17.1 s
same,Bas,[6],0%
same,Eos,[6],1%
same,Fbg,[6],250 mg/dL
same,Hb,[6],13.4 g/dL
same,Ht,[6],40.3%
same,Lym,[6],77%
same,MCHC,[6],33.4%
same,MCV,[6],63.9 fL
same,Mono,[6],4.6%
same,Neu,[6],17.6%
same,PT,[6],11.7 s
same,RBC,[6],631.8 x10_4/ul
same,Ret,[6],7.4%
same,WBC,[6],199.8 x10_2/uL
same,APTT,[7],17.5 s
same,Bas,[7],0%
same,Eos,[7],0.4%
same,Fbg,[7],257.2 mg/dL
same,Hb,[7],13.8 g/dL
same,Ht,[7],41.2%
same,Lym,[7],78.8%
same,MCHC,[7],33.4%
same,MCV,[7],59.6 fL
same,Mono,[7],4.4%
same,Neu,[7],16.2%
same,RBC,[7],692.2 x10_4/ul
same,Ret,[7],5.8%
same,WBC,[7],162.2 x10_2/uL
same,APTT,[8],15.6 s
same,Bas,[8],0%
same,Eos,[8],0.4%
same,Fbg,[8],273 mg/dL
same,Hb,[8],13.3 g/dL
same,Ht,[8],39.7%
same,Lym,[8],76%
same,MCHC,[8],33.4%
same,MCV,[8],58 fL
same,Mono,[8],3%
same,Neu,[8],20.4%
same,RBC,[8],684.8 x10_4/ul
same,Ret,[8],6.4%
same,WBC,[8],184.3 x10_2/uL
same,KIDNEY_L,[6],1.1 g
same,KIDNEY_R,[6],1.1 g
same,KIDNEY_TOTAL,[6],2.2 g
same,KIDNEY_L,[7],1.2 g
same,KIDNEY_R,[7],1.2 g
same,KIDNEY_TOTAL,[7],2.4 g
same,KIDNEY_L,[8],1.4 g
same,KIDNEY_R,[8],1.5 g
same,KIDNEY_TOTAL,[8],2.9 g
same,ALP,[6],763 IU/L
same,ALT,[6],32 IU/L
same,AST,[6],57.4 IU/L
same,BUN,[6],20.2 mg/dL
same,CRE,[6],0.6 mg/dL
same,Ca,[6],10.7 mg/dL
same,Cl,[6],105 meq/L
same,DBIL,[6],0 mg/dL
same,GLC,[6],201 mg/dL
same,IP,[6],8.4 mg/dL
same,K,[6],4.8 meq/L
same,RALB,[6],3.9 g/dL
same,TBIL,[6],0.3 mg/dL
same,TC,[6],75.4 mg/dL
same,TG,[6],113.8 mg/dL
same,TP,[6],6.6 g/dL
same,gamma-GTP,[6],2.8 IU/L
same,ALP,[7],719.2 IU/L
same,ALT,[7],30.4 IU/L
same,AST,[7],63 IU/L
same,BUN,[7],26.6 mg/dL
same,CRE,[7],0.6 mg/dL
same,Ca,[7],10.7 mg/dL
same,Cl,[7],106.2 meq/L
same,DBIL,[7],0.008 mg/dL
same,GLC,[7],184.6 mg/dL
same,IP,[7],8.4 mg/dL
same,K,[7],4.3 meq/L
same,RALB,[7],3.9 g/dL
same,TBIL,[7],0.4 mg/dL
same,TC,[7],69.6 mg/dL
same,TG,[7],147.6 mg/dL
same,TP,[7],6.4 g/dL
same,gamma-GTP,[7],1.2 IU/L
same,ALP,[8],413 IU/L
same,ALT,[8],28.2 IU/L
same,AST,[8],57.2 IU/L
same,BUN,[8],24.2 mg/dL
same,CRE,[8],0.6 mg/dL
same,Ca,[8],10.5 mg/dL
same,Cl,[8],106.8 meq/L
same,DBIL,[8],0.02 mg/dL
same,GLC,[8],174.2 mg/dL
same,IP,[8],7.4 mg/dL
same,K,[8],4.4 meq/L
same,RALB,[8],3.9 g/dL
same,TBIL,[8],0.3 mg/dL
same,TC,[8],72.2 mg/dL
same,TG,[8],166.2 mg/dL
same,TP,[8],6.1 g/dL
same,gamma-GTP,[8],1.8 IU/L
